Measurements as given in ChEMBL document CHEMBL3046300, “Design, synthesis, and biological evaluation of sulfonic acid ester and benzenesulfonamide derivatives as potential CETP inhibitors” (Med Chem Res, 2012).

What was measured:
[1] = biological target: T1, Cholesteryl ester transfer protein (Oryctolagus cuniculus) (UniProt P22687); test: Inhibition of Oryctolagus cuniculus (rabbit) CETP-mediated cholesteryl ester transfer at 10 uM after 1 hr by fluorescence assay
T1 sequence (whole entry): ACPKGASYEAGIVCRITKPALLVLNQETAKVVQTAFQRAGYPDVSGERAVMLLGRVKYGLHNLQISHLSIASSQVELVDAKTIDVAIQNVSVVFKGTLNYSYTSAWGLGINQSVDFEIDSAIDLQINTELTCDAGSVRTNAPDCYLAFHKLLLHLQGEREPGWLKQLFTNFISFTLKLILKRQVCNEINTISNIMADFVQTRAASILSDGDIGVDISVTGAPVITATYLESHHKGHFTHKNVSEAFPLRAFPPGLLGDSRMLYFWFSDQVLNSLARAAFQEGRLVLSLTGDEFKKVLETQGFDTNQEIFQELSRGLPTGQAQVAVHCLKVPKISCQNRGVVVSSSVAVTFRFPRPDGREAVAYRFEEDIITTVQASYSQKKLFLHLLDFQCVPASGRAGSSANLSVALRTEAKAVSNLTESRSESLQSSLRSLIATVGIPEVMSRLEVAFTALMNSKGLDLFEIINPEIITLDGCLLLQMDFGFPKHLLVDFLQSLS

[2] = biological target: T2, Cholesteryl ester transfer protein (Oryctolagus cuniculus, UniProt P22687); test: Inhibition of Oryctolagus cuniculus (rabbit) CETP-mediated cholesteryl ester transfer after 1 hr by fluorescence assay
T2 sequence (P22687 whole entry): T1 sequence (whole entry)

Compound | inhibition [1] [%] | IC50 [2] [µM]
Cc1ccc(S(=O)(=O)Nc2ccc(OCc3ccc(Cl)cc3)cc2)cc1 | 23 | –
COc1cccc(COc2ccc(N(S(=O)(=O)c3ccc(C)cc3)S(=O)(=O)c3ccc(C)cc3)cc2)c1 | 65.3 | 3.9
Cc1ccc(S(=O)(=O)Oc2ccc(NCc3cccc(C)c3)cc2)cc1 | 31.3 | 30.1
Cc1ccc(CN(Cc2ccc(C)cc2)c2ccc(OS(=O)(=O)c3ccc(C)cc3)cc2)cc1 | 22.3 | –
Cc1ccc(COc2ccc(NS(=O)(=O)c3ccc(C)cc3)cc2)cc1 | 0 | –
Cc1ccc(S(=O)(=O)Oc2ccc(NCc3cccc(Br)c3)cc2)cc1 | 16.1 | –
Cc1ccc(S(=O)(=O)Oc2ccc(N(Cc3cccc(Cl)c3)Cc3cccc(Cl)c3)cc2)cc1 | 31.9 | 28.5
Cc1ccc(S(=O)(=O)Oc2ccc(N(Cc3cccc(C)c3)Cc3cccc(C)c3)cc2)cc1 | 29 | –
Cc1ccc(S(=O)(=O)Nc2ccc(OCc3cccc(Cl)c3)cc2)cc1 | 29.6 | –
Cc1ccc(S(=O)(=O)Nc2ccc(OCc3ccc(Br)cc3)cc2)cc1 | 10.2 | –
Cc1ccc(S(=O)(=O)N(c2ccc(OCc3ccc(Cl)cc3)cc2)S(=O)(=O)c2ccc(C)cc2)cc1 | 37.5 | 13.2
Cc1ccc(S(=O)(=O)Oc2ccc(N(Cc3ccc(Br)cc3)Cc3ccc(Br)cc3)cc2)cc1 | 17.5 | –
Cc1ccc(S(=O)(=O)N(c2ccc(OCc3cccc(C(F)(F)F)c3)cc2)S(=O)(=O)c2ccc(C)cc2)cc1 | 39 | 11.1
Cc1ccc(S(=O)(=O)Oc2ccc(N(Cc3cccc([N+](=O)[O-])c3)Cc3cccc([N+](=O)[O-])c3)cc2)cc1 | 31.4 | 29.7
Cc1ccc(S(=O)(=O)N(c2ccc(OCc3cccc(C)c3)cc2)S(=O)(=O)c2ccc(C)cc2)cc1 | 66.9 | 3.4
Cc1ccc(S(=O)(=O)Oc2ccc(NCc3cccc([N+](=O)[O-])c3)cc2)cc1 | 29.9 | –
Cc1ccc(S(=O)(=O)Nc2ccc(OCc3ccc([N+](=O)[O-])cc3)cc2)cc1 | 15.5 | –
Cc1ccc(S(=O)(=O)Nc2ccc(OCc3ccc(C(F)(F)F)cc3)cc2)cc1 | 9.9 | –
COc1cccc(COc2ccc(NS(=O)(=O)c3ccc(C)cc3)cc2)c1 | 22.8 | –
Cc1ccc(S(=O)(=O)Oc2ccc(N(Cc3cccc(Br)c3)Cc3cccc(Br)c3)cc2)cc1 | 23.1 | –
Cc1ccc(S(=O)(=O)Oc2ccc(N(Cc3cccc(C(F)(F)F)c3)Cc3cccc(C(F)(F)F)c3)cc2)cc1 | 24.7 | –
Cc1ccc(S(=O)(=O)N(c2ccc(OCc3cccc(Cl)c3)cc2)S(=O)(=O)c2ccc(C)cc2)cc1 | 42.6 | 10.5
Cc1ccc(S(=O)(=O)Oc2ccc(N(Cc3ccc([N+](=O)[O-])cc3)Cc3ccc([N+](=O)[O-])cc3)cc2)cc1 | 9.3 | –
Cc1ccc(S(=O)(=O)Oc2ccc(N(Cc3ccc(Cl)cc3)Cc3ccc(Cl)cc3)cc2)cc1 | 24.9 | –
